Patent publication US20080299123A1, “TREATMENT OF CHEMOTHERAPY- OR RADIOTHERAPY-RESISTANT TUMORS” (Deutsches Krebsforschungszentrum Stiftung des offentlichen …, priority 2006, published 2008)

Key:
PT45-P1res cells = experiment: Caspase-3/-7 assay in PT45-P1res cells; type: cell-based, human; conditions: inhibitor 10 μmol/L, 20 μg/mL etoposide 24 hours
Procedure: (a) PT45-P1 res cells were transfected with control siRNA or with two L1CAM specific siRNAs. Western blotting for the detection of full-length L1CAM or of HSP90 as a control for equal protein load was performed (upper panel). In parallel, siRNA transfected PT45-P1res cells were treated with 20 μg/mL etoposide or not for 24 hours and caspase-3/-7 activity was determined. (b) siRNA transfected PT45-P1res cells were subjected to L1CAM immunostaining (L1-11A antibody) or staining with an isotype matched control antibody followed by flow cytometry. One representative histogram is shown. (c) siRNA transfected PT45-P1res cells were analysed by western blotting for the detection of full-length L1 CAM, αv-integrin or HSP90 (d) After overnight siRNA transfection, cells were either left untreated or were either treated with 20 μg/mL etoposide or with 5 μg/mL gemcitabine for 24 hours, followed by either AnnexinV/PI staining and flow cytometry (AnnexinV positive cells over basal) or by caspase-3/-7 assay (n-fold induced caspase-3/-7 activity of basal). (e) PT45-P1res cells were either left untreated (w/o) or were treated with 20 μg/mL etoposide in the absence (w/o) or presence of either 5 μg/mL anti L1CAM antibody (Clone L1-11A) or 5 μg/mL isotype matched control antibody. After 24 hours, cells were analysed by AnnexinV/PI staining or by caspase-3/-7 assay. Means±SD from three independent experiments are shown. * indicates p<0.05.
As described elsewhere (Sebens Müerköster et al., 2006), apoptosis was determined by staining with annexinV/propidium iodide (Biocarta, Hamburg, Germany) and subsequent fluorescence flow cytometry (GalaxyArgon Plus; DAKO Cytomation, Hamburg, Germany) using the FLOMAX software, and by the detection of caspase-3/-7 activity using a homogeneous luminescent assay (Promega, Mannheim, Germany). All samples were measured in duplicates.
For L1CAM transfection, PT45-P1 cells were seeded into 6 well plates (2×10^5 cells/well), were grown overnight, followed by transfection with 5 μL/well DIMRIE reagent (Invitrogen) and 0.6 μg/well of the following plasmids: pcDNA3.1 (mock) or pcDNA3.1-L1CAM (L1CAM). Upon transfection for 18 hours, 1 mL medium containing 20% FCS was added and cells were left untreated or were treated as indicated for further 24 hours. For knock down of L1CAM, PT45-P1res cells were seeded into 12 well plates (1×10^5 cells/well), were grown overnight followed by transfection with 12 μL/well RNAiFect reagent (Invitrogen) and 2 μg/well of either Stealth negative control siRNA (Invitrogen) or Stealth L1CAM siRNA (Invitrogen). After overnight transfection, cells were either left untreated or treated as indicated for further 24 hours.

L1CAM = L1CAM expression in PT45-P1res cells (western blotting, flow cytometry, real-time PCR); type: cell-based, human; conditions: inhibitor 10 μmol/L, 24 hours
Procedure: After washing in PBS, cells grown in 6-well culture plates were detached with 5 mmol/L EDTA in PBS and then washed with PBS once again. Blocking was conducted in 1% BSA/PBS for 60 min. at room temperature followed by incubation with the anti L1CAM antibody L1-11A or an isotype matched control antibody (1:1000, in 1% BSA/PBS) at 4° C. overnight. Then, cells were washed three times in PBS followed by incubation (60 min, 37° C.) with a goat-anti mouse antibody conjugated with Alexa flour 488 (Dianova, Hamburg, Germany) diluted 1:500 in 1% BSA/PBS. After washing in PBS, cells were resuspended in 500 μL PBS and analysed by fluorescence flow cytometry.
Cells were seeded into 6 well and 12 well plates, respectively, and transfected or treated as indicated. Then, cells were washed once with PBS and lysed with 1 volume of 2×SDS sample buffer (128 mmol/L Tris-Base, 4.6% SDS, 10% glycerol). Samples were heated for 5 minutes at 95° C. and put on ice for 2 minutes. Protein concentrations were determined using the Dc Protein assay (BioRad). Ten μg of protein adjusted to an appropriate volume of SDS sample buffer containing 0.2 mg/mL bromphenolblue (Serva, Heidelberg, Germany) and 2.5% β-mercaptoethanol (Biomol, Hamburg, Germany) were submitted to electrophoresis on a 4-20% ProGel-Tris-glycin-gel (Anamed, Darmstadt, Germany) and immunoblotting was performed as described previously (Arlt et al, 2001). For detection of L1CAM, a monoclonal antibody (clone UJ127 from Acris Antibodies) was diluted at a concentration of 0.4 μg/mL in 5% nonfat milk powder and 0.05% Tween in TBS (blotto) and incubated overnight at 4° C. For detection of the cytoplasmic domain of L1CAM, the pcytL1 antibody (Mechtersheimer et al., 2001) was used at a concentration of 1 μg/mL in blotto and incubated overnight at 4° C. As control of equal protein load, a polyclonal rabbit antibody for HSP90 (Santa Cruz, Heidelberg, Germany) was diluted 1:2000 in blotto. The mouse anti CD51 antibody from Beckman Coulter GmbH (Krefeld, Germany) was used at a concentration of 1:500 in blotto for detection of human αv integrin. Incubation with the primary antibodies was performed overnight at 4° C. For detection of the primary antibodies, anti-mouse and anti-rabbit HRP-linked antibodies (Cell Signaling), respectively, were used at a dilution of 1:2000 in blotto-TBST at room temperature for 1 hour. After washing in TBST, blots were developed using the LumiGlo peroxidase detection kit (Cell Signaling).
2 μg of total RNA were reverse-transcribed into single-stranded cDNA, as described previously (Schafer et al., 1999). Two μL of cDNA and 0.2 μmol/L gene-specific primers were adjusted with RNAse-free water to a volume of 15 μL. To this mixture, 15 μL of iQ SYBR Green Supermix (BioRad) were added. Primers for the detection of L1CAM (Gavert et al., 2005) were used under the following conditions: 95° C./1 min; 95° C./1 min, 52° C./30 see, 72° C./30 see for 40 cycles; 72° C./10 min. Primers for the detection of iNOS were from Biosource (Ratingen, Germany) and used under the following PCR conditions: 95° C./5 min; 95° C./45 sec, 60° C./45 sec, 72° C./45 sec for 40 cycles; 72° C./10 min. For control, β-actin was amplified in parallel using primers from BD Biosciences Clontech. […] Data were collected during annealing steps and were further analysed by using the i-Cycler iQ Optical system software (BioRad). All samples were analysed in duplicates and data are expressed as amount of mRNA in arbitrary units.

CC(C)C[C@H](CC(=O)NO)C(=O)N[C@@H](Cc1ccc2ccccc2c1)C(=O)N[C@@H](C)C(N)=O [TAPI-0]
apoptosis induction after etoposide treatment (caspase-3/-7) (PT45-P1res cells): did not significantly affect apoptosis induction after etoposide treatment | L1CAM expression (full-length 220 kDa and 32 kD fragment) (L1CAM): neither of the inhibitors changed L1 CAM expression
